Patent publication US9120835B2, “Phosphoric acid ester derivatives” (Daiichi Sankyo Company Limited, priority 2011, dated 2015)

What was measured:
[1] = test system: lymphocytes in the peripheral blood; assay: Variation in number of lymphocytes in peripheral blood in rat; format: in vivo; conditions: male LEW/Crj rats, single oral gavage, suspension in 0.5% MC solution
Procedure: (§1) Male LEW/Crj rats at 3 or 6 weeks old were purchased from Charles River Laboratory Japan Inc. The rats were acclimatized for a week before the start of experiments. The rats were used for the experiments at 3 or 5 rats per one group. A necessary amount of a compound was weighed and suspended in a 0.5% MC solution by using a mortar and a muddler, or a homogenizer. A liquid for administration was prepared so as to be 5 mL per 1 kg body weight. The prepared solution was administered once by oral gavage. […] The blood was immediately put into a vacuum-sealed blood collection tube coated with an anticoagulant (EDTA-2K) (Nipro Corporation) and mixed. The sample was handled under room temperature condition until measurement. The number of the lymphocytes was measured by using an automatic hemacytometer (ADVIA120, Siemens Healthcare Diagnostics K. K.). At the time of blood collection, the thymus gland was also excised.

S1P lyase = biological target: T1, S1P lyase (Rattus norvegicus, UniProt Q8CHN6); assay: S1P lyase inhibitory ability in rat (thymus gland extract after oral administration); format: in vivo; conditions: thymus gland extract of orally dosed rats, [3H]dhS1P substrate, 37° C. for 1 hour
T1 construct: The excised thymus gland was crushed; from tissue; host or cells: thymus gland of male LEW/Crj rats (extract supernatant)
T1 sequence (Q8CHN6 1-568): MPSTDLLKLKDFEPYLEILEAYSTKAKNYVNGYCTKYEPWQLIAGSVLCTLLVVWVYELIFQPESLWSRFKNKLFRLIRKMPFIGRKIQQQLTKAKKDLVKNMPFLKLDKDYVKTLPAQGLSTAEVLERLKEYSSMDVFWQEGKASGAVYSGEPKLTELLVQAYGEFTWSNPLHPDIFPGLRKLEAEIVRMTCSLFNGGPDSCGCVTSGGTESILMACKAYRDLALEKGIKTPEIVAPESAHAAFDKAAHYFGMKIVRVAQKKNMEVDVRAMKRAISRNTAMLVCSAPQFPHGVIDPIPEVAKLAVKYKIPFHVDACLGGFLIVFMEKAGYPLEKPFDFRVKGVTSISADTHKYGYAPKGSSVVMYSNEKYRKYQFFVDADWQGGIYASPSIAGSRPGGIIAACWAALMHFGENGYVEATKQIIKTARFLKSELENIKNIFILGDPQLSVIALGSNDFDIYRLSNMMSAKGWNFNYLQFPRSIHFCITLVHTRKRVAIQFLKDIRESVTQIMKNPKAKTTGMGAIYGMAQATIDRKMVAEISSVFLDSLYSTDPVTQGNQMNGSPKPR
Procedure: as §1, with “At the time of blood collection, the thymus gland was also excised.” left out
The excised thymus gland was crushed by either a method including using zirconia beads in the presence of a homogenize buffer (50 mM HEPES-NaOH (pH=7.4), 0.15 M NaCl, 10% Glycerol, 1 mM EDTA, 1 mM DTT and complete protease inhibitor cocktail (Roche, #4693132)) or a method including chopping up the thymus gland and thereafter using a Potter-Elvehjem homogenizer. […] The protein amount in the supernatant was quantified by the Bradford method, and the supernatant was flash-freezed with liquid nitrogen and then stored at −80° C. […]

| Structure (SMILES) | number of lymphocytes in the peripheral blood [1] | S1P lyase activity in the thymus gland (S1P lyase) |
| --- | --- | --- |
| CC(=O)c1nc(COP(=O)(O)O)c[nH]1 [Example 1, Phosphoric acid mono-(2-acetyl-1H-imidazol-4-ylmethyl) ester and phosphoric acid mono-(2-acetyl-3H-imidazol-4-ylmethyl) ester] | reduced the number of lymphocytes in the peripheral blood | decreased SIP lyase activity in the thymus gland |
| CC(=O)c1nc(COP(=O)(O)O)c(C)[nH]1 [Example 2, Phosphoric acid mono-(2-acetyl-5-methyl-1H-imidazol-4-ylmethyl) ester and phosphoric acid mono-(2-acetyl-5-methyl-3H-imidazol-4-ylmethyl) ester] | reduced the number of lymphocytes in the peripheral blood | decreased SIP lyase activity in the thymus gland |
| O=P(O)(O)OCc1c[nH]c(-c2ccon2)n1 [Example 4, Phosphoric acid mono-(2-isoxazol-3-yl-1H-imidazol-4-ylmethyl) ester and phosphoric acid mono-(2-isoxazol-3-yl-3H-imidazol-4-ylmethyl) ester] | reduced the number of lymphocytes in the peripheral blood |  |
